This is an account of results in patent publication US7622489B2, “Mitotic kinesin inhibitors” (Merck & Co., Inc., priority 2002, dated 2009).

The experiment has as its target T1, human KSP motor domain (KSP(367H)) (Homo sapiens, UniProt P52732).
T1 construct: were used to amplify the motor domain and the neck linker region; made in house; host or cells: E. coli BL21 (DE3), vector pRSETa
T1 sequence (P52732 18-359 limits assumed): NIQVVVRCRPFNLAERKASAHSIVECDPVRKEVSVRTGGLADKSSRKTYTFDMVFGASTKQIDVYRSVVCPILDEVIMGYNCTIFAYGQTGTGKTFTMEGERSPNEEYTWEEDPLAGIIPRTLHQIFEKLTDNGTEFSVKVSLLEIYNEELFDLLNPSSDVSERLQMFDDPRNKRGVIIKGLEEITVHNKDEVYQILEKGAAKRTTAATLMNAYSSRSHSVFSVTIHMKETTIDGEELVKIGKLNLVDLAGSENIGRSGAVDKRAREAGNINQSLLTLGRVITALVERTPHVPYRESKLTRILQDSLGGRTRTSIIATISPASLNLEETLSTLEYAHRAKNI
Put plainly: Kinesin ATPhase In Vitro Assay. Format: biochemical. As to conditions: kinesin motor domain with microtubules, 1 mM ATP, 23° C.; free phosphate by quinaldine red/ammonium molybdate, 540 nm. The text has this:
I. Kinesin ATPhase In Vitro Assay
Cloning and Expression of Human Poly-Histidine Tagged KSP Motor Domain (KSP(367H))
Plasmids for the expression of the human KSP motor domain construct were cloned by PCR using a pBluescript full length human KSP construct (Blangy et al., Cell, vol. 83, pp1159-1169, 1995) as a template. The N-terminal primer 5′-[…] (SEQ. ID. NO.: 1) and the C-terminal primer 5′-[…] […] (SEQ. ID. NO.: 2) were used to amplify the motor domain and the neck linker region. The PCR products were digested with AseI and XhoI, ligated into the NdeIlXhoI digestion product of pRSETa (Invitrogen) and transformed into E. coli BL21 (DE3).
Cells were grown at 37 IC to an OD600 of 0.5. […]
The kinesin motor domain is incubated with microtubules, 1 mM ATP (1:1 MgCl2: Na-ATP), and compound at 23° C. in buffer containing 80 mM K-HEPES (pH 7.0), 1 mM EGTA, 1 mM DTT, 1 mM MgCl2, and 50 mM KCl. […] Free phosphate from the ATP hydrolysis reaction is measured via a quinaldine red/ammonium molybdate assay by adding 150 μl of quench C buffer containing a 2:1 ratio of quench A:quench B. Quench A contains 0.1 mg/mil quinaldine red and 0.14% polyvinyl alcohol; quench B contains 12.3 mM ammonium molybdate tetrahydrate in 1.15 M sulfuric acid. The reaction is incubated for 10 minutes at 23° C., and the absorbance of the phospho-molybdate complex is measured at 540 nm.

For orientation: IC50 means the concentration needed to halve the response being measured. A higher IC50 goes with a need for much substance.

SMILES strings stand for the structures.

As to `CC(C)[C@H](N)C(=O)N1CCC(c2cc(F)ccc2F)=CC1c1cccc(O)c1` (some centres unmarked) [Compound 2-2], the IC50 is no more than 15 µM.

Regarding `CNCC(C)CN(C)C(=O)N1CCC(c2cc(F)ccc2F)=CC1c1cccc(O)c1` (centres unmarked) [Compound 3-3, 4-(2,5-difluorophenyl)-6-(3-hydroxyphenyl)-N-methyl-N-[2-methyl-3-(methylamino)propyl]-3,6-dihydropyridine-1(2H)-carboxamide], the half-maximal inhibitory concentration (IC50) is no more than 15 µM.
